Results as given in patent US20230159556A1, “NOVEL PROTEIN KINASE INHIBITORS” (TENOVA PHARMACEUTICALS INC., priority 2020, published 2023).

Molecular target: Ba/F3_EGFR_del19/T790M/C797S cell (Homo sapiens, UniProt P00533, T790M/C797S, cells depend on it, form not given)
Assay: BaF3 cell proliferation assay (CelltiterGlo, 72 hr)
Format: cell-based
Details: 72 hr incubation; read-out: IC50 (nM, Ba/F3_EGFR_del19/T790M/C797S cell proliferation)
Description: (§1) The BaF3 cell proliferation assay was performed at Pharmaron (www.pharmaron.com, Beijing, China). The Ba/F3_WT and Ba/F3_Del19/T790M/C797S cell lines were maintained in 1640 medium containing 10% FBS, 1*PS and 1*Glutamax. Only cells with viability greater than 90% are used for assays. Dispense 30 μl of cell suspension at 700/well into 384 well microplate, add 30 nl compound solution into 384 cell plate by Echo, cells were incubated for 72 hr in 37° C./5% CO2 incubator, add 30 μl reagent CelltiterGlo assay kit (CTG, Promega) per well and shake plates, incubate the plate (avoiding light) at 37° C./5% CO2 for 30 min. and read the luminescence by Envision. The luminescence values were converted to % Inhibition. Calculate IC50 by fitting % inhibition values and log of compound concentrations to nonlinear regression (dose response−variable slope) with Graphpad 5.0.
(§2) Y=Bottom+(Top−Bottom)/(1+10^((Log IC50−X)*HillSlope))
(§3) X: log of inhibitor concentration; Y: % Inhibition.

Chain of Ba/F3_EGFR_del19/T790M/C797S cell (P00533 with tags, fused parts or gaps DEL746-750/T790M/C797S, form open): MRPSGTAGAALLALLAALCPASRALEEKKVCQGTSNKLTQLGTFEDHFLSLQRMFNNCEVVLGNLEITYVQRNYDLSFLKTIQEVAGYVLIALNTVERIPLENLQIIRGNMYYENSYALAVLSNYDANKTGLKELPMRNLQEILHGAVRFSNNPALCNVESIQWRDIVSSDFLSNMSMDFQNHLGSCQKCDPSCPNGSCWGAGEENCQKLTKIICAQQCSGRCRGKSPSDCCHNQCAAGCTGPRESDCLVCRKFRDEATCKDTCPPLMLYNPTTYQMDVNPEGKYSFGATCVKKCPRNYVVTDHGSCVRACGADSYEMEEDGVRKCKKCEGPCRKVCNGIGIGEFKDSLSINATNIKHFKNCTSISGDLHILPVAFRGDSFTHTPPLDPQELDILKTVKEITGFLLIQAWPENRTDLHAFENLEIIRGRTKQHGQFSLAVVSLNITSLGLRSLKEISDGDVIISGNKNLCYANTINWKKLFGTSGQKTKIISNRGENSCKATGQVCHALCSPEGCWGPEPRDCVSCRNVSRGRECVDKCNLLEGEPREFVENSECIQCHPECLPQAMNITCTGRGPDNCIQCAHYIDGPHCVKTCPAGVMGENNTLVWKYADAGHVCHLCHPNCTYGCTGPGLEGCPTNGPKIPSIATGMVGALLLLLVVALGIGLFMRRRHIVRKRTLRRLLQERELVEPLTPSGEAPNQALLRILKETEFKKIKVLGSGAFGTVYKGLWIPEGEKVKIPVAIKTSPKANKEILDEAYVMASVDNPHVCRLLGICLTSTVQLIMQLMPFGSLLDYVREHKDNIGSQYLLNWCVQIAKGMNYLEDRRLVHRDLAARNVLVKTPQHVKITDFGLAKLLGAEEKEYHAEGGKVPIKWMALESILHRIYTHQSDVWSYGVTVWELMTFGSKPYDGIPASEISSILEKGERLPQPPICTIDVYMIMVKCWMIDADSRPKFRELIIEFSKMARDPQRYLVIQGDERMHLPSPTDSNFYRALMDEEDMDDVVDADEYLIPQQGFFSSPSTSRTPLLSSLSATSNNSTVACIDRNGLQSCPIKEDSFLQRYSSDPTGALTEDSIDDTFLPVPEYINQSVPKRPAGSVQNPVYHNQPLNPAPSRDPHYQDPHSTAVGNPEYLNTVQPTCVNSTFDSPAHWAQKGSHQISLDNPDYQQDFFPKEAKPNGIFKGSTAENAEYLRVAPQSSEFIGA

Q: Which GI50 does the source give for `COc1cc(N2CCN(C)CC2)c2cc1Nc1ncc(Cl)c(n1)Nc1ccc(cc1N(C)S(C)(=O)=O)OCCCCC2` [Compound A3, N-(3^5-chloro-1^6-methoxy-1^4-(4-methylpiperazin-1-yl)-6-oxa-2,4-diaza-3(2,4)-pyrimidina-1(1,3),5(1,4)-dibenzenacycloundecaphane-5^2-yl)-N-methylmethanesulfonamide] here?
A: 135 nM

Q: With `COc1cc(N2CCN(C)CC2)c2cc1Nc1ncc(C(F)(F)F)c(n1)Nc1ccc(cc1N(C)S(C)(=O)=O)OCCCCC2` [Compound A13, N-(1^6-methoxy-1^4-(4-methylpiperazin-1-yl)-3^5-(trifluoromethyl)-6-oxa-2,4-diaza-3(2,4)-pyrimidina-1(1,3),5(1,4)-dibenzenacycloundecaphane-5^2-yl)-N-methylmethanesulfonamide] as the compound, how does the GI50 read?
A: 108 nM

Tested on: Ba/F3_WT cell
Assay: as above
Format: cell-based
Details: Mus musculus, 72 hr incubation
Description: as §1, §2, §3

Q: For `COc1cc(N2CCN(C)CC2)c2cc1Nc1ncc(Cl)c(n1)Nc1ccc(cc1N(C)S(C)(=O)=O)OCCCCC2` [Compound A3, N-(3^5-chloro-1^6-methoxy-1^4-(4-methylpiperazin-1-yl)-6-oxa-2,4-diaza-3(2,4)-pyrimidina-1(1,3),5(1,4)-dibenzenacycloundecaphane-5^2-yl)-N-methylmethanesulfonamide], which IC50 is on record?
A: 1180 nM

Q: How did the IC50 turn out when `COc1cc(N2CCN(C)CC2)c2cc1Nc1ncc(C(F)(F)F)c(n1)Nc1ccc(cc1N(C)S(C)(=O)=O)OCCCCC2` [Compound A13, N-(1^6-methoxy-1^4-(4-methylpiperazin-1-yl)-3^5-(trifluoromethyl)-6-oxa-2,4-diaza-3(2,4)-pyrimidina-1(1,3),5(1,4)-dibenzenacycloundecaphane-5^2-yl)-N-methylmethanesulfonamide] was run?
A: 3770 nM

Molecular target: T1, EGFR_L858R/T790M/C797S (Homo sapiens, UniProt P00533, C797S/L858R/T790M)
T1 construct: Reaction Biology Corporation (contract assay provider)
Assay: In vitro biochemical kinase assay (33P-ATP filter-binding, Reaction Biology)
Details: not given
Description: The biochemical kinase assay was performed at Reaction Biology Corporation (www.reactionbiology.com, Malvern, Pa.) following procedures described in the reference (Anastassiadis, T, et al, Nature Biotechnology, 2011, 29, 1039). Base Reaction buffer includes 20 mM Hepes (pH 7.5), 10 mM MgCl2, 1 mM EGTA, 0.02% Brij35, 0.02 mg/ml BSA, 0.1 mM Na3VO4, 2 mM DTT and 1% DMSO. Required cofactors are added individually to each kinase reaction. Testing compounds were dissolved in 100% DMSO to specific concentration. The serial dilution was conducted by Integra Viaflo Assist in DMSO. Compounds in 100% DMSO are into the kinase reaction mixture by Acoustic technology (Echo550; nanoliter range), incubate for 20 min at room temperature, followed by ^33P-ATP and incubation for 2 hours at room temperature. Radioactivity was then detected by filter-binding method. Kinase activity data were expressed as the percent remaining kinase activity in test samples compared to vehicle (dimethyl sulfoxide) reactions. IC50 values and curve fits were obtained using Prism (GraphPad Software).

T1 sequence (P00533 25-1210 T790M/C797S/L858R): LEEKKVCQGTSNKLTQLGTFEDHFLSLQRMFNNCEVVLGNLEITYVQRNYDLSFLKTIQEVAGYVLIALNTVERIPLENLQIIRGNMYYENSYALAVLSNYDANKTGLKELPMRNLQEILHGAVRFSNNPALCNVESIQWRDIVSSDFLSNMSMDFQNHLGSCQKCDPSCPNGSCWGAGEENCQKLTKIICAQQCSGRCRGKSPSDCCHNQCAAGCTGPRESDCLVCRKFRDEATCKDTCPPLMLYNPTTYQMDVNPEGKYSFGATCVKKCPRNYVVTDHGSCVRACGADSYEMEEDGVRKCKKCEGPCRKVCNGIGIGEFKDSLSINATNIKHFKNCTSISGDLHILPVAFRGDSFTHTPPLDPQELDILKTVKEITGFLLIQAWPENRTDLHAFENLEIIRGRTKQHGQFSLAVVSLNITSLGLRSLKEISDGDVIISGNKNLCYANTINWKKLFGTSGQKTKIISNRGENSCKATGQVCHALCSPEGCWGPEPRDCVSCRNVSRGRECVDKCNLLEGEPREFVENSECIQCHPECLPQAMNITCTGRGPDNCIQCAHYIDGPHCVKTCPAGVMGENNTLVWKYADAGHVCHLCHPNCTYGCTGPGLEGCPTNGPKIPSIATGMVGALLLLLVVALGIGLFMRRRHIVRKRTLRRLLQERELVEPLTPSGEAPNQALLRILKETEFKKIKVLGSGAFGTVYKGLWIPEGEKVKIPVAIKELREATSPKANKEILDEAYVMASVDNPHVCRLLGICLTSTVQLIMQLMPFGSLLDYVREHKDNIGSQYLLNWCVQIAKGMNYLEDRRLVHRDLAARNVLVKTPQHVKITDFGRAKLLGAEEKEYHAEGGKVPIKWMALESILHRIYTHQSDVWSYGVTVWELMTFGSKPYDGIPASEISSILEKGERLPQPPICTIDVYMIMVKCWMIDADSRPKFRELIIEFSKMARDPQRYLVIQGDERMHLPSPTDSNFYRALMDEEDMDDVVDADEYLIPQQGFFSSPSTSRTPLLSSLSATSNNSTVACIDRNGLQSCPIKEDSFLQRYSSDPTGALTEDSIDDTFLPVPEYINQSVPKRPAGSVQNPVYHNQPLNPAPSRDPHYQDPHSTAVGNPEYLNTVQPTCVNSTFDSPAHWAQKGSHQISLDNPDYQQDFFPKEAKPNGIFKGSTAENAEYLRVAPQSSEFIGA

Q: With `COc1cc(N2CCN(C)CC2)c2cc1Nc1ncc(Cl)c(n1)Nc1ccc(cc1N(C)S(C)(=O)=O)OCCCCC2` [Compound A3, N-(3^5-chloro-1^6-methoxy-1^4-(4-methylpiperazin-1-yl)-6-oxa-2,4-diaza-3(2,4)-pyrimidina-1(1,3),5(1,4)-dibenzenacycloundecaphane-5^2-yl)-N-methylmethanesulfonamide] as the compound, how does the IC50 read?
A: 9.86 nM

Q: `COc1cc(N2CCN(C)CC2)c2cc1Nc1ncc(C(F)(F)F)c(n1)Nc1ccc(cc1N(C)S(C)(=O)=O)OCCCCC2` [Compound A13, N-(1^6-methoxy-1^4-(4-methylpiperazin-1-yl)-3^5-(trifluoromethyl)-6-oxa-2,4-diaza-3(2,4)-pyrimidina-1(1,3),5(1,4)-dibenzenacycloundecaphane-5^2-yl)-N-methylmethanesulfonamide] was tested. Which IC50 did it give?
A: 2 nM

Q: `COc1cc(N2CCN(C)CC2)c2cc1Nc1ncc(Cl)c(n1)Nc1ccc(cc1NS(C)(=O)=O)OCCCCC2` [Compound A16, N-(3^5-chloro-1^6-methoxy-1^4-(4-methylpiperazin-1-yl)-6-oxa-2,4-diaza-3(2,4)-pyrimidina-1(1,3),5(1,4)-dibenzenacycloundecaphane-5^2-yl)methanesulfonamide] was tested. Which IC50 did it give?
A: 20.3 nM

Q: For `COc1cc(N2CCN(C)CC2)c2cc1Nc1ncc(Br)c(n1)Nc1ccc(cc1N(C)S(C)(=O)=O)OCCCCC2` [Compound A12, N-(3^5-bromo-1^6-methoxy-1^4-(4-methylpiperazin-1-yl)-6-oxa-2,4-diaza-3(2,4)-pyrimidina-1(1,3),5(1,4)-dibenzenacycloundecaphane-5^2-yl)-N-methylmethanesulfonamide], which IC50 is on record?
A: 0.6 nM

Q: How did the IC50 turn out when `COc1cc(N2CCN(C)CC2)c2cc1Nc1ncc(Cl)c(n1)Nc1ccc(cc1C(=O)N(C)C)OCCCCCC2` [Compound A25, 3^5-chloro-1^6-methoxy-N,N-dimethyl-1^4-(4-methylpiperazin-1-yl)-6-oxa-2,4-diaza-3(2,4)-pyrimidina-1(1,3),5(1,4)-dibenzenacyclododecaphane-5^2-carboxamide] was run?
A: 2510 nM

Q: How did the IC50 turn out when `COc1cc(N2CCN(C)CC2)c2cc1Nc1ncc(Cl)c(n1)Nc1ccc(cc1N(C)S(=O)(=O)C(C)C)OCCCCC2` [Compound A17, N-(3^5-chloro-1^6-methoxy-1^4-(4-methylpiperazin-1-yl)-6-oxa-2,4-diaza-3(2,4)-pyrimidina-1(1,3),5(1,4)-dibenzenacycloundecaphane-5^2-yl)-N-methylpropane-2-sulfonamide] was run?
A: 82.2 nM

Q: Which IC50 does the source give for `COc1cc(N2CCC(N3CCN(C)CC3)CC2)c2cc1Nc1ncc(Br)c(n1)Nc1ccc(cc1N(C)S(C)(=O)=O)CCC(=O)NCCC2` [Compound A41, N-(3^5-bromo-1^6-methoxy-1^4-(4-(4-methylpiperazin-1-yl)piperidin-1-yl)-8-oxo-2,4,9-triaza-3(2,4)-pyrimidina-1(1,3),5(1,4)-dibenzenacyclododecaphane-5^2-yl)-N-methylmethanesulfonamide] here?
A: 0.4 nM

Q: Which IC50 does the source give for `COc1cc(N2CCC(N3CCN(C)CC3)CC2)c2cc1Nc1ncc(Br)c(n1)Nc1ccc(cc1N(C)S(C)(=O)=O)CCCNC(=O)CC2` [Compound A42] here?
A: 3.8 nM

Q: Which IC50 does the source give for `COc1cc(N2CCC(N3CCN(C)CC3)CC2)c2cc1Nc1ncc(Cl)c(n1)Nc1ccc(cc1S(C)(=O)=O)OCCCCCC2` [Compound A19, 3^5-chloro-1^6-methoxy-1^4-(4-(4-methylpiperazin-1-yl)piperidin-1-yl)-5^2-(methylsulfonyl)-6-oxa-2,4-diaza-3(2,4)-pyrimidina-1(1,3),5(1,4)-dibenzenacyclododecaphane] here?
A: 180 nM

Q: Which IC50 does the source give for `CCOc1cc(N2CCN(C)CC2)c2cc1Nc1ncc(Cl)c(n1)Nc1ccc(cc1N(C)S(C)(=O)=O)OCCCCC2` [Compound A21, N-(3^5-chloro-1^6-ethoxy-1^4-(4-methylpiperazin-1-yl)-6-oxa-2,4-diaza-3(2,4)-pyrimidina-1(1,3),5(1,4)-dibenzenacycloundecaphane-5^2-yl)-N-methylmethanesulfonamide] here?
A: 40.5 nM

Q: `COc1cc(N2CCN(C)CC2)c2cc1Nc1ncc(F)c(n1)Nc1ccc(cc1N(C)S(C)(=O)=O)OCCCCC2` [Compound A11, N-(3^5-fluoro-1^6-methoxy-1^4-(4-methylpiperazin-1-yl)-6-oxa-2,4-diaza-3(2,4)-pyrimidina-1(1,3),5(1,4)-dibenzenacycloundecaphane-5^2-yl)-N-methylmethanesulfonamide] was tested. Which IC50 did it give?
A: 17 nM

Q: With `COc1cc(N2CCC(N3CCC(N(C)C)CC3)CC2)c2cc1Nc1ncc(Br)c(n1)Nc1ccc(cc1N(C)S(C)(=O)=O)OCCCCC2` [Compound A37, N-(3^5-bromo-1^4-(4-(dimethylamino)-[1,4′-bipiperidin]-1′-yl)-1^6-methoxy-6-oxa-2,4-diaza-3(2,4)-pyrimidina-1(1,3),5(1,4)-dibenzenacycloundecaphane-5^2-yl)-N-methylmethanesulfonamide] as the compound, how does the IC50 read?
A: 0.6 nM

Q: `COc1cc(N(C)CCN(C)C)c2cc1Nc1ncc(Cl)c(n1)Nc1ccc(cc1N(C)S(C)(=O)=O)OCCC2` [Compound A7, N-(3^5-chloro-1^4-((2-(dimethylamino)ethyl)(methyl)amino)-1^6-methoxy-6-oxa-2,4-diaza-3(2,4)-pyrimidina-1(1,3),5(1,4)-dibenzenacyclononaphane-5^2-yl)-N-methylmethanesulfonamide] was tested. Which IC50 did it give?
A: 3760 nM

Q: With `COc1cc(N2CCN(C)CC2)c2cc1Nc1ncc(Cl)c(n1)Nc1ccc(cc1S(C)(=O)=O)OCCCC2` [Compound A6, 3^5-chloro-1^6-methoxy-1^4-(4-methylpiperazin-1-yl)-5^2-(methylsulfonyl)-6-oxa-2,4-diaza-3(2,4)-pyrimidina-1(1,3),5(1,4)-dibenzenacyclodecaphane] as the compound, how does the IC50 read?
A: 10000 nM

Q: How did the IC50 turn out when `COc1cc(N2CCN(C)CC2)c2cc1Nc1ncc(Cl)c(n1)Nc1ccc(cc1N(C)S(C)(=O)=O)OCCC2` [Compound A2, N-(3^5-chloro-1^6-methoxy-1^4-(4-methylpiperazin-1-yl)-6-oxa-2,4-diaza-3(2,4)-pyrimidina-1(1,3),5(1,4)-dibenzenacyclononaphane-5^2-yl)-N-methylmethanesulfonamide] was run?
A: 643 nM

Q: With `COc1cc(N2CCC3(CC2)CN(C)C3)c2cc1Nc1ncc(Br)c(n1)Nc1ccc(cc1N(C)S(C)(=O)=O)OCCCCC2` [Compound A38, N-(3^5-bromo-1^6-methoxy-1^4-(2-methyl-2,7-diazaspiro[3.5]nonan-7-yl)-6-oxa-2,4-diaza-3(2,4)-pyrimidina-1(1,3),5(1,4)-dibenzenacycloundecaphane-5^2-yl)-N-methylmethanesulfonamide] as the compound, how does the IC50 read?
A: 0.3 nM

Q: For `CC(C)Oc1cc(N2CCN(C)CC2)c2cc1Nc1ncc(Cl)c(n1)Nc1ccc(cc1N(C)S(C)(=O)=O)OCCCCC2` [Compound A22, N-(3^5-chloro-1^6-isopropoxy-1^4-(4-methylpiperazin-1-yl)-6-oxa-2,4-diaza-3(2,4)-pyrimidina-1(1,3),5(1,4)-dibenzenacycloundecaphane-5^2-yl)-N-methylmethanesulfonamide], which IC50 is on record?
A: 503 nM

Q: Which IC50 does the source give for `COc1cc(N2CCC(N(C)CCN(C)C)CC2)c2cc1Nc1ncc(Br)c(n1)Nc1ccc(cc1N(C)S(C)(=O)=O)OCCCCC2` [Compound A36, N-(3^5-bromo-1^4-(4-((2-(dimethylamino)ethyl)(methyl)amino)piperidin-1-yl)-1^6-methoxy-6-oxa-2,4-diaza-3(2,4)-pyrimidina-1(1,3),5(1,4)-dibenzenacycloundecaphane-5^2-yl)-N-methylmethanesulfonamide] here?
A: 2.9 nM

Q: `COc1cc(N(C)CCN(C)C)c2cc1Nc1ncc(Cl)c(n1)Nc1ccc(cc1N(C)S(C)(=O)=O)OCCCCC2` [Compound A5, N-(3^5-chloro-1^4-((2-(dimethylamino)ethyl)(methyl)amino)-1^6-methoxy-6-oxa-2,4-diaza-3(2,4)-pyrimidina-1(1,3),5(1,4)-dibenzenacycloundecaphane-5^2-yl)-N-methylmethanesulfonamide] was tested. Which IC50 did it give?
A: 27.9 nM

Q: How did the IC50 turn out when `COc1cc(N2CCC(N3CCN(C)CC3)CC2)c2cc1Nc1ncc(Cl)c(n1)Nc1ccc(cc1N(C)S(C)(=O)=O)OCCCCC(=O)N2` [Compound A40, N-(3^5-chloro-1^6-methoxy-1^4-(4-(4-methylpiperazin-1-yl)piperidin-1-yl)-11-oxo-6-oxa-2,4,12-triaza-3(2,4)-pyrimidina-1(1,3),5(1,4)-dibenzenacyclododecaphane-5^2-yl)-N-methylmethanesulfonamide] was run?
A: 4.3 nM
